Results as given in ChEMBL document CHEMBL1150899, “Novel quinone methides from Salacia kraussii with in vitro antimalarial activity” (J Nat Prod, 1998).
In brackets after ≈: the same amount, converted by molar mass.

How the values were obtained:
Plasmodium falciparum [1] = test: Antiplasmodial activity against chloroquine-resistant Plasmodium falciparum K1 infected human erythrocytes as [3H]hypoxanthine uptake; type: functional, organism-based
Plasmodium falciparum [2] = test: Antiplasmodial activity against chloroquine-sensitive Plasmodium falciparum NF54 infected human erythrocytes as [3H]hypoxanthine uptake; type: functional, organism-based
HT-29 = test: Cytotoxicity against human HT-29 cells after 72 hrs by Alamar blue assay; type: functional, cell-based; settings: HT-29, 72 h
Mus musculus = test: Toxicity against Plasmodium berghei-infected mice (Mus musculus) assessed as mortality at 10 mg/kg, subcutaneously after 1 day; type: organism-based; set-up: dose 10 mg/kg, route subcutaneous; settings: in vivo, sc, 24 h

Question: What does the source list for `C=C1CC[C@]2(C=O)CC[C@]3(C)C4=CC=C5C(=CC(=O)C(O)=C5C)[C@]4(C)CC[C@@]3(C)[C@@H]2C1`?
Answer: IC50 (Plasmodium falciparum [1]): 0.094 µg/mL (≈ 0.225 µM); IC50 (Plasmodium falciparum [2]): 0.0799 µg/mL (≈ 0.191 µM)

Question: With `C=C1CC[C@]2(C(=O)OC)CC[C@]3(C)C4=CC=C5C(=CC(=O)C(O)=C5C)[C@]4(C)CC[C@@]3(C)[C@@H]2C1` as the compound, how does the IC50 (Plasmodium falciparum [1]) read?
Answer: Its IC50 is 0.0276 µg/mL (≈ 0.0615 µM).

Question: What about the IC50 (Plasmodium falciparum [2]) of the same compound?
Answer: Its IC50 is 0.0371 µg/mL (≈ 0.0827 µM).

Question: And the IC50 (HT-29)?
Answer: Its IC50 is 2.38 µg/mL (≈ 5.31 µM).

Question: And the Activity (Mus musculus)?
Answer: Its Activity is “Toxic”.

Question: Which IC50 (Plasmodium falciparum [1]) does the source give for `C=C1CC[C@]2(CO)CC[C@]3(C)C4=CC=C5C(=CC(=O)C(O)=C5C)[C@]4(C)CC[C@@]3(C)[C@@H]2C1` here?
Answer: The IC50 was 0.114 µg/mL (≈ 0.272 µM).

Question: What about the IC50 (Plasmodium falciparum [2]) of the same compound?
Answer: Its IC50 is 0.14 µg/mL (≈ 0.333 µM).

Question: What about the IC50 (HT-29) of the same compound?
Answer: Its IC50 is 6.06 µg/mL (≈ 14.4 µM).

Question: Which results are given for `CC1=C(O)C(=O)C=C2C1=CC=C1[C@@]2(C)CC[C@@]2(C)[C@@H]3C[C@](C)(C(=O)O)CC[C@]3(C)CC[C@]12C` [CELASTROL]?
Answer: IC50 (Plasmodium falciparum [1]): 0.181 µg/mL (≈ 0.401 µM); IC50 (Plasmodium falciparum [2]): 0.254 µg/mL (≈ 0.564 µM); IC50 (HT-29): 1.3 µg/mL (≈ 2.88 µM)

Question: For `CCN(CC)CCCC(C)Nc1ccnc2cc(Cl)ccc12` (centres undefined) [CHLOROQUINE], which IC50 (HT-29) is on record?
Answer: Its IC50 is 58 µg/mL (≈ 181 µM).

Question: For `CC1=C(O)C(=O)C=C2C1=CC=C1[C@@]2(C)CC[C@@]2(C)[C@@H]3C[C@H](CO)CC[C@]3(C)CC[C@]12C` [ISOIGUESTEROL], which IC50 (Plasmodium falciparum [1]) is on record?
Answer: The IC50 was 0.0229 µg/mL (≈ 0.0542 µM).

Question: What about the IC50 (Plasmodium falciparum [2]) of the same compound?
Answer: Its IC50 is 0.0541 µg/mL (≈ 0.128 µM).

Question: What about the IC50 (HT-29) of the same compound?
Answer: The IC50 was 2.43 µg/mL (≈ 5.75 µM).

Question: With `COC(=O)[C@]1(C)CC[C@]2(C)CC[C@]3(C)C4=CC=C5C(=CC(=O)C(O)=C5C)[C@]4(C)CC[C@@]3(C)[C@@H]2C1` [PRISTIMERIN] as the compound, how does the IC50 (Plasmodium falciparum [1]) read?
Answer: The IC50 was 0.19 µg/mL (≈ 0.41 µM).

Question: What about the IC50 (Plasmodium falciparum [2]) of the same compound?
Answer: Its IC50 is 0.271 µg/mL (≈ 0.583 µM).

Question: And the IC50 (HT-29)?
Answer: The IC50 was 4.6 µg/mL (≈ 9.9 µM).
